Source: patent US9937162B2, “Methods of treating and preventing vascular instability diseases” (THE UNIVERSITY OF UTAH RESEARCH FOUNDATION, priority 2014, dated 2018)

How the values were obtained:
[1] = test system: Ccm2 ecKO mice; assay: Chronic treatment of Ccm2 ecKO mice, CCM lesions quantified by postmortem MRI; type: in vivo; conditions: treated from P5 to 5 months of age, tempol 1 mM in drinking water or cholecalciferol-enhanced chow (+25 IU/g D3)
Description: Chronic treatment studies of the effects of tempol and cholecalciferol in inducible endothelial-specific Ccm2 knockout mice (Ccm2^f/−; +/Tg(Pdgfb-iCreER^T2), also referred to herein as Ccm2 ecKO mice or endothelial knockout mice, were performed, inter alia, to evaluate the potential of tempol and/or cholecalciferol administration for the treatment of CCM disease (see Chan A C et al., J Clin Invest 121, 1871-1881 (2011) regarding the Ccm2 ecKO mice). 5 days after birth (P5), Ccm2 ecKO mice litters were assigned to a standard chow (HARLAN 2018, 1.5 IU/g D3), a standard chow plus tempol in drinking water (1 mM), or a cholecalciferol-enhanced chow (HARLAN 2018+25 IU/g D3). The chow was provided to the mother of each litter until the mice were weaned at P21. […]
At 5 months of age, mice were sacrificed by exsanguination (blood was collected for later analysis), and subsequent perfusion with saline and then 4% formaldehyde. […] Lesion area and number were quantified by two blinded reviewers using IMAGEJ and OSIRIX software. […]
The results of both reviewers were tabulated. […] FIG. 1B depicts a normalized number of CCM lesions as measured by MRI in Ccm2 ecKO mice. […] FIG. 1C is a graph depicting the number of lesions of various sizes as measured by MRI in Ccm2 ecKO mice. […]

[2] = test system: ARF6; assay: ARF6 activation assay (GTP-ARF6 pulldown, western blot) in siCCM2 HMVEC-D cells; type: cell-based
Description: (§1) The timing of effects of cholecalciferol on the endothelium was assessed by evaluating the effect of knockdown of CCM2, and subsequent treatment with cholecalciferol, on a panel of signaling pathways associated with endothelial instability. The signaling pathways assessed included: ADP-ribosylation factor 6 (ARF6), cell division control protein 42 homolog (CDC42), transforming protein RhoA (RHOA), phosphorylation of myosin light chain (pMLC), Ras-related C3 botulinum toxin substrate 1 (RAC1), and Ras-related protein R-Ras (RRAS) (see Broman M T et al., Circ Res 98, 73-80 (2006); Broman M T et al., Trends Cardiovasc Med 17, 151-156 (2007); Eliceiri B P et al., Mol Cell 4, 915-924 (1999); Sawada J et al., Cancer Cell 22, 235-249 (2012); Weis S et al., J Cell Biol 167, 223-229 (2004); Wojciak-Stothard B et al., Vascul Pharmacol 39, 187-199 (2002); and Zhu W et al., Nature 492, 252-255 (2012)). […]
(§2) For RhoA, ARF6, Rac1/cdc42, and R-Ras activation assays, crude total cell lysate were generated and GTP-RhoA, ARF6, Rac1/cdc42, and R-Ras were precipitated with Rhotekin-RBD (EMD MILLIPORE), GGA3-PBD (CELL BIOLABS), PAK-1-PBD (EMD MILLIPORE), and Raf-1 RBD, respectively. […] RhoA, ARF6, Rac1/cdc42, and R-Ras were detected by western blotting with antibodies (RhoA, Rac1, and R-Ras antibodies were from CELL SIGNALING TECHNOLOGY; ARF6 and cad42 antibodies were from EMD MILLIPORE).

[3] = test system: RHOA; assay: RhoA activation assay (GTP-RhoA pulldown, western blot) in siCCM2 HMVEC-D cells; type: cell-based; conditions: siCCM2 HMVEC-D monolayers, 100 nM or 10 μM, 24 hours
Description: as §1, §2

[4] = test system: pMLC; assay: Phosphorylation of myosin light chain (pMLC) in siCCM2 HMVEC-D cells; type: cell-based; conditions: siCCM2 HMVEC-D monolayers, 100 nM or 10 μM, 60 minutes
Description: The timing of effects of cholecalciferol on the endothelium was assessed by evaluating the effect of knockdown of CCM2, and subsequent treatment with cholecalciferol, on a panel of signaling pathways associated with endothelial instability. The signaling pathways assessed included: ADP-ribosylation factor 6 (ARF6), cell division control protein 42 homolog (CDC42), transforming protein RhoA (RHOA), phosphorylation of myosin light chain (pMLC), Ras-related C3 botulinum toxin substrate 1 (RAC1), and Ras-related protein R-Ras (RRAS) (see Broman M T et al., Circ Res 98, 73-80 (2006); Broman M T et al., Trends Cardiovasc Med 17, 151-156 (2007); Eliceiri B P et al., Mol Cell 4, 915-924 (1999); Sawada J et al., Cancer Cell 22, 235-249 (2012); Weis S et al., J Cell Biol 167, 223-229 (2004); Wojciak-Stothard B et al., Vascul Pharmacol 39, 187-199 (2002); and Zhu W et al., Nature 492, 252-255 (2012)).
Wild-type, siCTRL, or siCCM2 treated HMVEC-D cells were incubated with either 100 nM or 10 μM cholecalciferol (TOCRIS BIOSCIENCE), 7-DHC (SIGMA-ALDRICH), or vehicle (0.5% DMSO) for 60 minutes (pMLC, ARF6, RAC, CDC42, RRAS) or 24 hours (RHOA), unless otherwise indicated. After treatment, the cells were washed with ice-cold PBS and lysed in 50 mM Tris pH 7.4, 150 mM NaCl, 10 mM MgCl2, 10% glycerol, 1% NP-40, 1× protease inhibitors, and 1× phosphatase inhibitors.

[5] = test system: CDC42; assay: cdc42 activation assay (pulldown, western blot) in HMVEC-D cells; type: cell-based; conditions: up to 10 μM, 60 minutes
Description: as §1, §2

[6] = test system: RAC1; assay: Rac1 activation assay (pulldown, western blot) in HMVEC-D cells; type: cell-based; conditions: up to 10 μM, 60 minutes
Description: as §1, §2

[7] = test system: RRAS; assay: R-Ras activation assay (pulldown, western blot) in HMVEC-D cells; type: cell-based; conditions: up to 10 μM, 60 minutes
Description: as §1, §2

| SMILES | number of CCM lesions as measured by MRI, compared to standard chow [1] | time to inhibition of ARF6 activation ([2]; siCCM2 HMVEC-D cells, time course) | CCM2 knockdown-induced activation of ARF6 ([2]; siCCM2 HMVEC-D monolayers, 100 nM or 10 μM, 60 minutes) | CCM2 knockdown-induced activation of RHOA [3] | CCM2 knockdown-induced activation of pMLC [4] | basal activation of CDC42 [5] | basal activation of RAC1 [6] | basal activation of RRAS [7] |
| --- | --- | --- | --- | --- | --- | --- | --- | --- |
| CC1(C)CC(O)CC(C)(C)N1[O] [tempol, 4-hydroxy-2,2,6,6-tetramethylpiperidine 1-oxyl] | approximately half as many lesions |  |  |  |  |  |  |  |
| C=C1CC[C@H](O)C/C1=C/C=C1\CCC[C@]2(C)[C@@H]([C@H](C)CCCC(C)C)CC[C@@H]12 [cholecalciferol] | approximately half as many lesions | ≤ 5 min | inhibited | inhibited | inhibited | nor did treatment of up to 10 μM cholecalciferol appear to basally inhibit activation | nor did treatment of up to 10 μM cholecalciferol appear to basally inhibit activation | nor did treatment of up to 10 μM cholecalciferol appear to basally inhibit activation |
